From ChEMBL document CHEMBL1201862, “PubChem BioAssay data set” (2004)
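Grown in 96-well plates, cells were treated for 48 hours with each compound at five concentrations. Insufficient inhibition: endpoint recorded as highest concentration tested. At the GI50, growth is halved.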 Activity calls are given as the source filed them. Cut-off read from the data, not from the text of the source: active = GI50 up to about 1.1 µM and inactive = higher.

Legend:
Experiment in all cases: NCI-60 cell line screen, 48 h
NCI-H226 = test system: NCI-H226
OVCAR-4 = test system: OVCAR-4
U-251 = test system: U-251
SK-MEL-28 = test system: SK-MEL-28
K562 = test system: K562
HOP-92 = test system: HOP-92
SK-MEL-5 = test system: SK-MEL-5
Malme-3M = test system: Malme-3M
MDA-N = test system: MDA-N
RPMI-8226 = test system: RPMI-8226
OVCAR-8 = test system: OVCAR-8
SNB-19 = test system: SNB-19
SF-268 = test system: SF-268
IGROV-1 = test system: IGROV-1
NCI-H23 = test system: NCI-H23
RXF 393 = test system: RXF 393
OVCAR-3 = test system: OVCAR-3
SNB-75 = test system: SNB-75
CCRF-CEM = test system: CCRF-CEM
SK-OV-3 = test system: SK-OV-3

Row | SMILES | GI50 (NCI-H226) | GI50 (OVCAR-4) | GI50 (U-251) | GI50 (SK-MEL-28) | GI50 (K562) | GI50 (HOP-92) | GI50 (SK-MEL-5) | GI50 (Malme-3M) | GI50 (MDA-N) | GI50 (RPMI-8226) | GI50 (OVCAR-8) | GI50 (SNB-19) | GI50 (SF-268) | GI50 (IGROV-1) | GI50 (NCI-H23) | GI50 (RXF 393) | GI50 (OVCAR-3) | GI50 (SNB-75) | GI50 (CCRF-CEM) | GI50 (SK-OV-3)
1 | O=C1Sc2ccc(Br)cc2C(=O)Sc2ccccc21 | 18.5 µM (inactive) | 13.2 µM (inactive) | 14.5 µM (inactive) | 19.5 µM (inactive) | 12.8 µM (inactive) | 13.5 µM (inactive) | 14.4 µM (inactive) | 2.24 µM (inactive) | 8.17 µM (inactive) | 3.33 µM (inactive) | 9.84 µM (inactive) | 13.9 µM (inactive) | 7.08 µM (inactive) | 14.2 µM (inactive) | 15.7 µM (inactive) | 4.56 µM (inactive) | 12.5 µM (inactive) | 12.5 µM (inactive) | 2.48 µM (inactive) | 27.4 µM (inactive)
2 | O=C(NCCCCCCNC(=O)n1cc(F)c(=O)[nH]c1=O)NCCCOCCOCCOCCOCCOCCOCCOCCOCCOCCOCCOCCOCCOCCOCCOCCOCCOCCOCCOCCOCCOCCCNC(=O)C(O)C(O)C(O)C(O)CO (centres undefined) | > 100 µM (inactive) | > 100 µM (inactive) | 70.6 µM (inactive) | 16.3 µM (inactive) | 34.8 µM (inactive) | > 18.4 µM (inactive) | 51.9 µM (inactive) | 20.2 µM (inactive) | 33.9 µM (inactive) | 5.85 µM (inactive) | 39.2 µM (inactive) | 84.7 µM (inactive) | 55.5 µM (inactive) | 60.1 µM (inactive) | 32.8 µM (inactive) | 43.2 µM (inactive) | 55.5 µM (inactive) | 73.1 µM (inactive) | 43.9 µM (inactive) | > 100 µM (inactive)
3 | CN(C)c1ccc(C2CC(c3ccc4ccccc4c3O)=NN2)cc1 (centres undefined) | 41.5 µM (inactive) | 94.4 µM (inactive) | 33.6 µM (inactive) | 63.1 µM (inactive) | 25.5 µM (inactive) | 29.4 µM (inactive) | 36 µM (inactive) | 51.1 µM (inactive) | 26.5 µM (inactive) | 29.6 µM (inactive) | 32.4 µM (inactive) |  | 32.5 µM (inactive) | 24.9 µM (inactive) | 34.5 µM (inactive) | 36.1 µM (inactive) | 18 µM (inactive) | 37 µM (inactive) | 17.9 µM (inactive) | 48.5 µM (inactive)
4 | CN(C)c1ccc(C(Cc2ccccc2)C2NC(=S)NC2=O)cc1 (centres undefined) | > 100 µM (inactive) | 28.4 µM (inactive) | > 94 µM (inactive) | > 100 µM (inactive) | 31.1 µM (inactive) | > 100 µM (inactive) | > 100 µM (inactive) | > 74.8 µM (inactive) | > 100 µM (inactive) | 97.7 µM (inactive) | > 100 µM (inactive) | > 100 µM (inactive) | > 100 µM (inactive) | > 100 µM (inactive) | > 100 µM (inactive) | > 100 µM (inactive) | > 100 µM (inactive) | > 100 µM (inactive) | > 100 µM (inactive) | 76.9 µM (inactive)
5 | C#C[C@]1(O)[C@@H](CO)O[C@@H](n2ccc(N)nc2=O)[C@@H]1O | 0.0308 µM (active) | 0.18 µM (active) | 0.0263 µM (active) | 0.0728 µM (active) | < 0.01 µM (active) | 0.11 µM (active) | 0.0139 µM (active) | 0.0337 µM (active) | 0.0121 µM (active) | < 0.01 µM (active) | < 0.0121 µM (active) | 0.0706 µM (active) | 0.019 µM (active) | 0.028 µM (active) | 0.0902 µM (active) | 0.0581 µM (active) | 0.132 µM (active) | 0.0327 µM (active) | < 0.0109 µM (active) | 0.0791 µM (active)
6 | CC1=NN(c2ccccc2)C(=O)/C1=C\c1c(C)[nH]n(-c2ccccc2)c1=O | > 100 µM (inactive) | > 100 µM (inactive) | > 100 µM (inactive) | > 100 µM (inactive) | 38.8 µM (inactive) | 27.1 µM (inactive) | > 100 µM (inactive) | 95.1 µM (inactive) | > 100 µM (inactive) | 28.4 µM (inactive) | > 100 µM (inactive) | > 100 µM (inactive) | > 100 µM (inactive) | > 100 µM (inactive) | > 100 µM (inactive) | 35.1 µM (inactive) | 54.5 µM (inactive) | > 100 µM (inactive) | 75.9 µM (inactive) | > 100 µM (inactive)
7 | O=C(/C=C/c1ccccc1)CCN1CCOCC1 | 20.8 µM (inactive) | 20.9 µM (inactive) | 12.9 µM (inactive) | 11.4 µM (inactive) | 2.15 µM (inactive) | 16.8 µM (inactive) | 17.5 µM (inactive) | 18.6 µM (inactive) | 14.2 µM (inactive) | 1.56 µM (inactive) | 15.1 µM (inactive) | 23.8 µM (inactive) | 12 µM (inactive) | 15.7 µM (inactive) | 16.2 µM (inactive) | 12.7 µM (inactive) | 14.3 µM (inactive) | 23.4 µM (inactive) | 1.82 µM (inactive) | 24.1 µM (inactive)
8 | C=C(C)C(=O)OC1C[C@H](COC(C)=O)C2CC=C(C)C2C2OC(=O)C(=C)[C@H]12 (some centres undefined) | 17.3 µM (inactive) | 1.74 µM (inactive) | 8.67 µM (inactive) | 2.41 µM (inactive) | 1.87 µM (inactive) | 1.92 µM (inactive) | 7.5 µM (inactive) | 1.55 µM (inactive) | 3.66 µM (inactive) | 0.525 µM (active) | 5.31 µM (inactive) | 16.9 µM (inactive) | 2.4 µM (inactive) | 11.7 µM (inactive) | 4.26 µM (inactive) | 3.81 µM (inactive) | 2.19 µM (inactive) | 10.8 µM (inactive) | 1.64 µM (inactive) | 17.2 µM (inactive)
9 | O=c1cc(N2CCN(c3cc(=O)n4ccccc4n3)CC2)oc2ccccc12 | > 76.2 µM (inactive) | > 100 µM (inactive) | > 58.1 µM (inactive) | > 100 µM (inactive) | 47.1 µM (inactive) | 72.4 µM (inactive) | 65.9 µM (inactive) | > 100 µM (inactive) | > 100 µM (inactive) | 23 µM (inactive) | > 51.4 µM (inactive) | > 55.5 µM (inactive) | 25.6 µM (inactive) | 95.5 µM (inactive) | 99.1 µM (inactive) | 36.1 µM (inactive) | > 100 µM (inactive) | 9.06 µM (inactive) | 6.7 µM (inactive) | > 100 µM (inactive)
10 | CO[C@H]1[C@@H](O)[C@@H](O)O[C@@H](O[C@H]2CC[C@@]3(C)[C@H](CC[C@@H]4[C@@H]3[C@H](O)C[C@]3(C)[C@@H](C5=CC(=O)OC5)CC[C@]43O)C2)[C@@H]1O | 0.69 µM (active) | 0.192 µM (active) | 0.305 µM (active) | 0.622 µM (active) | 0.175 µM (active) | 0.531 µM (active) | 0.136 µM (active) | 0.198 µM (active) | 0.243 µM (active) | 0.198 µM (active) | 0.33 µM (active) | 0.692 µM (active) | 0.11 µM (active) | 0.301 µM (active) | 0.113 µM (active) | 0.056 µM (active) | 0.112 µM (active) | 0.354 µM (active) | 0.23 µM (active) | 0.248 µM (active)
11 | CC(=O)O[C@@H]1CC2[C@@H](CCC3Cc4nc5c(nc4C[C@@]32C)CC2CC[C@@H]3C(CC[C@@]4(C)C3CC[C@@H]4C(C)CCCC(C)C)[C@@]2(C)C5)C2C[C@@H]3OC4(CCC(C)CO4)C(C)[C@@H]3[C@]21C (some centres undefined) | 23.4 µM (inactive) | > 100 µM (inactive) | 84.1 µM (inactive) | > 100 µM (inactive) | > 100 µM (inactive) | 25.6 µM (inactive) | > 100 µM (inactive) | > 100 µM (inactive) | > 100 µM (inactive) | > 100 µM (inactive) | > 100 µM (inactive) | 65.2 µM (inactive) | 39.3 µM (inactive) | > 100 µM (inactive) | > 100 µM (inactive) | 19.9 µM (inactive) | > 100 µM (inactive) | 2.74 µM (inactive) | > 100 µM (inactive) | 3.04 µM (inactive)
12 | COC1(OC)CCN(Cc2ccccc2)C1=O | 18.7 µM (inactive) | 16 µM (inactive) | 17.3 µM (inactive) | 9.62 µM (inactive) | 3.27 µM (inactive) | 11.1 µM (inactive) | 15.3 µM (inactive) | > 100 µM (inactive) | 10.7 µM (inactive) | 6.32 µM (inactive) | 6.44 µM (inactive) | 17.8 µM (inactive) | > 38.1 µM (inactive) | 13.9 µM (inactive) | 20 µM (inactive) | 12.3 µM (inactive) | 11.4 µM (inactive) | 16.2 µM (inactive) | 2.25 µM (inactive) | 96.4 µM (inactive)
13 | C/C(=N\NC(=[Se])N(C)C)c1ccccn1 | 0.0973 µM (active) | 0.103 µM (active) | < 0.01 µM (active) | 1.91 µM (inactive) | < 0.01 µM (active) | 1.09 µM (active) | 0.0263 µM (active) | 0.47 µM (active) | 1.89 µM (inactive) | < 0.01 µM (active) | < 0.01 µM (active) | 1.37 µM (inactive) | 0.216 µM (active) | < 0.01 µM (active) | < 0.01 µM (active) | 0.455 µM (active) | 0.106 µM (active) | 0.462 µM (active) | < 0.01 µM (active) | 0.0216 µM (active)
14 | CC(=O)NC(CS/N=N/c1[nH]cnc1C(N)=O)C(=O)O (centres undefined) | 2.51 µM (inactive) | 3.31 µM (inactive) | > 64.9 µM (inactive) | > 100 µM (inactive) | 0.791 µM (active) | 6.93 µM (inactive) | 27 µM (inactive) | 2.16 µM (inactive) | 5.05 µM (inactive) | 1.46 µM (inactive) | 2.06 µM (inactive) | > 100 µM (inactive) | 4.29 µM (inactive) | 5.81 µM (inactive) | 38.9 µM (inactive) | > 100 µM (inactive) | 10 µM (inactive) | 16.9 µM (inactive) | 2.14 µM (inactive) | 2.15 µM (inactive)
